Article PMC3305904, “N^β-methylation changes the recognition pattern of aza-β^3-amino acid containing peptidomimetic substrates by protein kinase A” (Organic and Medicinal Chemistry Letters, 2011)
Like-named read-outs stand apart in the source and are kept apart here.

Legend:
PKA catalytic subunit [1] = target: T1, PKA catalytic subunit (Homo sapiens, UniProt P17612); settings: parent peptide, cited from earlier work
Method: Table 1 Phosphorylation of N^β-methylated peptidomimetic substrates by PKA catalytic subunit at ATP concentration 100 μM, 30°C, 50 mM TRIS/HCl, pH 7 | column: Km (μM); 10^2 kcat (μmole mg^-1 s^-1); 10^2 kII (L mg^-1 s^-1)

PKA catalytic subunit [2] = target: T1, PKA catalytic subunit; assay: PKA-catalyzed phosphorylation of peptide/peptidomimetic substrates, [γ-32P]ATP, phosphocellulose paper binding; type: biochemical; settings: ATP 100 μM, 30°C, 50 mM TRIS/HCl, pH 7; for 10^2 kcat: Michaelis-Menten fit, value is kcat multiplied by 10^2; for 10^2 kII (second order rate constant): from the initial linear part of the Michaelis-Menten plot, value is kII multiplied by 10^2; for Km: substrate phosphorylation by PKA catalytic subunit, Michaelis-Menten fit of initial velocities, substrate concentration varied
Method: The phosphorylation reactions followed the classical Michaelis-Menten rate equation and therefore all substrates were characterized by the Km and kcat values, which correspond to the constant ATP concentration of 0.1 mM. The initial linear part of the Mihaelis-Menten plot was used for the calculation of the second order rate constants kII as described in [10] and these values are also listed in Table 1. Agreement between the parameters kII and values of the ratio of kcat/Km for substrates confirms the applicability of the Michelis-Menten rate equation for the description of the kinetic data.
The method of kinetic measurements was described in our previous article and was based on utilizing the radioactive ATP with [^32P]phosphate in γ-position. The phosphorylated substrates were bound onto Whatman phosphocellulose paper and the paper-bound radioactivity was counted. Linear plots between filter-bound radioactivity and time were used for calculating the initial velocity values of the phosphorylation reaction, which were thereafter processed by the classical Michaelis-Menten rate equation. Kinetic experiments were made at constant ATP concentration (100 μM) and the Km and kcat values were calculated for peptidomimetic substrates, concentrations of which were varied in the reaction mixture.

Substance	Km (PKA catalytic subunit [1]; phosphorylation by PKA) [µM]	10^2 kII (second order rate constant) (PKA catalytic subunit [1]; value is kII multiplied by 10^2) [L mg^-1 s^-1]	10^2 kcat (PKA catalytic subunit [1]; value is kcat multiplied by 10^2) [μmole mg^-1 s^-1]	10^2 kcat (PKA catalytic subunit [2]) [μmole mg^-1 s^-1]	10^2 kII (second order rate constant) (PKA catalytic subunit [2]) [L mg^-1 s^-1]	Km (PKA catalytic subunit [2]) [µM]
RRASVA	11.1 ± 3.5	3.2 ± 0.1	36 ± 3			
RRASVA [I, RRASVA analog with one N^β-Me-aza-β^3-amino acid residue; likely the N-terminal Arg]				24.4 ± 1.5	0.098 ± 0.010	209 ± 24
RRASVA [II, RRASVA analog with one N^β-Me-aza-β^3-amino acid residue; likely the second Arg]				11.9 ± 1.0	0.11 ± 0.07	79 ± 18
RRASVA [III, RRASVA analog with one N^β-Me-aza-β^3-amino acid residue; likely Ala at position -1]				5.5 ± 0.3	0.034 ± 0.005	91 ± 15
RRASVA [IV, RRASVA analog with one N^β-Me-aza-β^3-amino acid residue; likely Val]				16 ± 2.0	0.12 ± 0.02	118 ± 36
RRASVA [RRASVA analog with one N^β-Me-aza-β^3-amino acid residue; likely the C-terminal Ala]				5.0 ± 0.4	0.090 ± 0.015	57 ± 17
